Measurements taken from US20210228523A1, “MODULATORS OF SESTRIN-GATOR2 INTERACTION AND USES THEREOF” (Navitor Pharmaceuticals, Inc., priority 2017, published 2021).

Key:
[1] = system: mTORC1; assay: Western blot of pS6 in multiple regions of the rat brain; assay type: in vivo; conditions: Example C; NV-5138 160 mg/kg oral; 1 hr post-dose; ad libitum access to food
Description: Study Design: Ten (10) male rats weighing between 175 and 200 g were randomized into 2 study groups (n=5/group), following a 5-day acclimation period. Group 1 received a single administration of Veh by oral gavage and group 2 received a single administration of NV-5138 (160 mg/kg prepared in Veh) by oral gavage. One hour following administration, rats were sacrificed by conscious decapitation, plasma was collected for analysis of NV-5138 exposure in addition to the isolation of the PFC, hippocampus, striatum, neocortex and cerebellum by microdissection. Total protein extracts were prepared from the harvested tissues and submitted to WB analysis followed by quantitative analysis of selected mTORC1 substrates.
Formulation of NV-5138 (160 mg/ml): NV-5138 (Navitor, Lot #09) was prepared by dissolving in Veh at a concentration of 160 mg/mL. […]
Western Blot Analysis: Synaptosomes preparations (15 μg of total protein) were loaded and separated on NuPAGE 4-12% Bis-Tris gels and transferred to PVDF membrane (Immobilon-FL PVDF membrane, Millipore) using CAPS Buffer (10 mM 3-(Cyclohexylamino)-1-propanesulfonic acid, 12.5% Ethanol pH=10). […] Signals were quantified using the Odyssey Infrared Imaging System (LI-COR Bioscience). The resulting densitometric readings were used to generate a ratio of phopho-protein to α-tubulin. […]

[2] = system: mTORC1; assay: Western blot of pS6 in rat brain and selected peripheral organs; assay type: in vivo; conditions: Example D; NV-5138 160 mg/kg oral; 1 hr post-dose
Description: Study Design: Thirty (30) male rats weighing between 175 and 200 g were randomized into 3 study groups (n=10), following a 5-day acclimation period. One hour following dosing rats were sacrificed by conscious decapitation, plasma, brain and selected peripheral tissues were harvested for compound level and WB analysis. Tissues were prepared for WB to quantitate the mTORC1 substrate pS6 as a measure of mTORC1 activity.
The dosing volume based on the weight of the animal (10 mL/kg) was administered by oral gavage. Test articles were prepared the day of dosing.
Tissues Preparations: One hour following dosing rats were sacrificed by conscious decapitation, plasma, brain and peripheral tissues were harvested and immediately frozen in liquid nitrogen. Tissues were thawed and homogenized for 1 min twice using MP homogenizer in Lysis Buffer (Cell lysis buffer: 1% Triton X-100, 50 mM HEPES pH 7.4, 100 mM NaCl, 2 mM EDTA, 10 mM Beta-glycerophosphate, 10 mM Sodium pyrophosphate, and 1 protease inhibitor tab per 50 mL fresh) at 4° C. Lysates were then sonicated on ice for 20 s at 50% amplitude. The protein concentration was determined by Bradford assay and all samples were mixed with loading buffer (50 mM Tris-HCl pH 6.8, 2% SDS, 5% glycerol, 5% β-mercaptoethanol and 0.01% Bromophenol blue) and stored at −20° C. until WB analysis.
Western Blot (WB) Analysis. Equal amounts of each sample (15 μg of total protein) were loaded and separated on NuPAGE 4-12% Bis-Tris gels and transferred to PVDF membrane (Immobilon-FL PVDF membrane, Millipore) using CAPS Buffer (10 mM 3-(Cyclohexylamino)-1-propanesulfonic acid, 12.5% Ethanol pH=10). After transfer, membranes were incubated for 1 hr at room temperature in Odyssey blocking buffer (Licor). After blocking, membranes were incubated at 4° C. overnight with primary antibodies. Primary antibodies used were rabbit anti-[…] (cell signaling; #5364) at 1:1000, mouse anti-GAPDH (Sigma; #G8795) at 1:1000 and mouse anti-a-tubulin (Sigma; #T5168) at 1:10000 in Odyssey blocking buffer. The next day, membranes were washed three times in 1×TBS-Tween (25 mM Tris, pH 7.4, 3.0 mM KCl, 140 mM NaCl and 0.05% Tween-20) and incubated with dye-coupled secondary antibodies (goat anti-mouse IRdye680, and goat anti-rabbit IRdye800 from LI-COR) at 1:20000 in Odyssey blocking buffer for 30 min then wash three times in IX TBS-Tween. Signals were quantified using the Odyssey Infrared Imaging System (LI-COR Bioscience). The resulting densitometric readings were used to generate a ratio of phopho-protein to a-tubulin or GAPDH. The resulting ratio was further normalized to vehicle treated control group.

SMILES: CC(C)(C[C@H](N)C(=O)O)C(F)F [NV-5138]
- activation of mTORC1 (pS6) in PFC, striatum, hippocampus, neocortex and cerebellum [1]: significant activation of mTORC1 in most, but not all of the major regions of the brain
- level of pS6 in rat epididymal fat [2]: significantly increased
- level of pS6 in rat heart [2]: significantly increased
- level of pS6 in rat kidney [2]: significantly increased
- level of pS6 in rat tibialis anterior [2]: significantly increased
- pS6 levels in liver [2]: not the liver
- pS6 levels in rat brain [2]: significant activation of mTORC1
- pS6 levels in testes [2]: significant activation
